Data taken from patent US20050209278A1, “Piperidinyl- and piperazinyl-sulfonylmethyl hydroxamic acids and their use as protease inhibitors” (priority 2002, published 2005).
Like-named read-outs stand apart in the source and are kept apart here.

Legend:
Type in all cases: biochemical
MMP-13 = molecular target: T1, MMP-13 (Homo sapiens, UniProt P45452); assay: MMP-13 inhibition (in vitro Ki)
T1 construct: made in house; host or cells: baculovirus / insect cells

MMP-2 = molecular target: T2, MMP-2 (Homo sapiens, UniProt P08253); assay: MMP-2 inhibition (in vitro Ki)
T2 construct: made in house; host or cells: MMP-2-transfected p2AHT2 cells
T2 sequence (P08253 110-660): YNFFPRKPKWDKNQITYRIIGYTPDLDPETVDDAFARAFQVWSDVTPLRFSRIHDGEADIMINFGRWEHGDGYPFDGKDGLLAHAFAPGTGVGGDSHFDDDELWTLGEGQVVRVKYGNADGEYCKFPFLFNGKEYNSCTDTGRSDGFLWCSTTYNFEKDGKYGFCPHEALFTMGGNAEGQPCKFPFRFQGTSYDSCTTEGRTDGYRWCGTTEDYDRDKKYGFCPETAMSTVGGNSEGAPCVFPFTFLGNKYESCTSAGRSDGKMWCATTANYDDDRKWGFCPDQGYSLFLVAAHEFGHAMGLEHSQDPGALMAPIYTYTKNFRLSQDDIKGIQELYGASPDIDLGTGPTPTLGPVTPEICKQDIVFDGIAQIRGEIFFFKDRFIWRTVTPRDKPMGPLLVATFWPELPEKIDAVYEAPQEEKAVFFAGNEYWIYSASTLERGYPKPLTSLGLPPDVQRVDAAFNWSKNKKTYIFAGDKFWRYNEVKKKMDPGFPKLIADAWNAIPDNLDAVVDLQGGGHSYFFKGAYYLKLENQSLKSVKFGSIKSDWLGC

MMP-1 = molecular target: T3, MMP-1 (Homo sapiens, UniProt P03956); assay: MMP-1 inhibition (in vitro Ki)
T3 construct: made in house; host or cells: MMP-1-transfected HT-1080 cells (spent media)
T3 sequence (P03956 100-469): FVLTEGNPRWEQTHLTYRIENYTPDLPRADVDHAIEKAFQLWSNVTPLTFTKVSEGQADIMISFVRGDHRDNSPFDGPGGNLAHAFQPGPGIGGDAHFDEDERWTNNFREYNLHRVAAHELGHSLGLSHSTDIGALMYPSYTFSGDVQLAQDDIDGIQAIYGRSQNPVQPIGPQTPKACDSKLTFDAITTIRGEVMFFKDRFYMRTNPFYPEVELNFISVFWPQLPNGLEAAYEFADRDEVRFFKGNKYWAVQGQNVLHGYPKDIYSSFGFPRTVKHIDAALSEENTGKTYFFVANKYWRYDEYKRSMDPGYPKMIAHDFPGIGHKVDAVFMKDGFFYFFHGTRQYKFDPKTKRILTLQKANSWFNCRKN

MMP-9 = molecular target: T4, MMP-9 (Homo sapiens, UniProt P14780); assay: MMP-9 inhibition (in vitro Ki)
T4 construct: made in house; host or cells: MMP-9-transfected HT1080 cells (spent media)
T4 sequence (P14780 107-707 limits assumed): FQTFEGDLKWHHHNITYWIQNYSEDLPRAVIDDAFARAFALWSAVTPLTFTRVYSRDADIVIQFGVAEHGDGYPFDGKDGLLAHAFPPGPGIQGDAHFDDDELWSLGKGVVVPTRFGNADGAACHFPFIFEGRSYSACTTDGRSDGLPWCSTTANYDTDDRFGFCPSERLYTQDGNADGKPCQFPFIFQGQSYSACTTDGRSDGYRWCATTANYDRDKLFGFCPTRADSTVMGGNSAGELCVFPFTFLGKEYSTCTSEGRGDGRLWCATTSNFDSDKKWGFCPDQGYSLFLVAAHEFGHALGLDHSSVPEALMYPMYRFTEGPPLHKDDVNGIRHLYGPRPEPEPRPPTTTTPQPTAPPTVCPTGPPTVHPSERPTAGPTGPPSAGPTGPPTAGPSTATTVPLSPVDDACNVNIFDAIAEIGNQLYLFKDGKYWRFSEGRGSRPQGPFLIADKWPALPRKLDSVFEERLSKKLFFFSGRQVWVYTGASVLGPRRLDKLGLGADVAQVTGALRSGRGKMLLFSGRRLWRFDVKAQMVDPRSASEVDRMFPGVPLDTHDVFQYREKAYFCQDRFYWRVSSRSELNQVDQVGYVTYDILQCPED

MMP-14 = molecular target: T5, MMP-14 (Homo sapiens, UniProt P50281); assay: MMP-14 inhibition (in vitro Ki)
T5 construct: The catalytic domain enzyme was expressed in E. coli inclusion bodies, solubilized in urea; made in house

[1] = Table 9, read-out: MMP-13 Ki (IC-50)
[2] = Table 9, read-out: MMP-2 Ki (IC-50)
[3] = Table 9, read-out: MMP-1 Ki (IC-50)
[4] = Table 9, read-out: MMP-9 Ki (IC-50)
[5] = Table 9, read-out: MMP-14 Ki (IC-50)

SMILES: CC(C)CN(C)C(=O)/C=C/C=C/C1CCN(S(=O)(=O)C2(C(=O)NO)CCOCC2)CC1 [Example A77]
- Ki (MMP-13; [1]): 6.79 nM
- Ki (MMP-2; [2]): 1100 nM
- Ki (MMP-1; [3]): 6200 nM
- Ki (MMP-9; [4]): 5910 nM
- Ki (MMP-14; [5]): > 10000 nM

SMILES: CN(C(=O)CCCCC1CCN(S(=O)(=O)C2(C(=O)NO)CCOCC2)CC1)c1ccc(F)cc1 [Example A93]
- Ki (MMP-13; [1]): 0.82 nM
- Ki (MMP-2; [2]): 92.3 nM
- Ki (MMP-1; [3]): 1050 nM
- Ki (MMP-9; [4]): 336 nM
- Ki (MMP-14; [5]): > 10000 nM

SMILES: O=C(NO)C1(S(=O)(=O)N2CCC(OCCCCCC(F)(F)F)CC2)CCOCC1 [Example A49, 4-[4-(6,6,6-trifluoro-hexyloxy)-piperidine-1-sulfonyl]-tetrahydro-pyran-4-carboxylic Acid Hydroxyamide]
- Ki (MMP-13; Table 8, read-out: MMP-13 Ki): 2.87 nM
- Ki (MMP-2; Table 8, read-out: MMP-2 Ki): 3.81 nM
- Ki (MMP-1; Table 8, read-out: MMP-1 Ki): > 10000 nM
- Ki (MMP-9; Table 8, read-out: MMP-9 Ki): 3.1 nM
- Ki (MMP-14; Table 8, read-out: MMP-14 Ki): 6740 nM

SMILES: COC(=O)CCCC#Cc1ccc(C2CCN(S(=O)(=O)C3(C(=O)NO)CCOCC3)CC2)nc1 [Example A136]
- Ki (MMP-13; [1]): 0.48 nM
- Ki (MMP-2; [2]): 0.33 nM
- Ki (MMP-1; [3]): 4300 nM
- Ki (MMP-9; [4]): 2.03 nM
- Ki (MMP-14; [5]): 1150 nM

SMILES: O=C(NO)C1(S(=O)(=O)N2CCC(c3ccc(CCc4ccccc4)cn3)CC2)CCOCC1 [Example A100]
- Ki (MMP-13; [1]): 0.45 nM
- Ki (MMP-2; [2]): 5.27 nM
- Ki (MMP-1; [3]): > 10000 nM
- Ki (MMP-9; [4]): 13.2 nM
- Ki (MMP-14; [5]): 1770 nM

SMILES: O=C(NO)C1(S(=O)(=O)N2CCC(c3ccc(CCC(F)(F)F)cn3)CC2)CCCC1 [Example A105]
- Ki (MMP-13; [1]): 0.23 nM
- Ki (MMP-2; [2]): 0.52 nM
- Ki (MMP-1; [3]): 2170 nM
- Ki (MMP-9; [4]): 0.18 nM
- Ki (MMP-14; [5]): 1130 nM

SMILES: O=C(NO)C1(S(=O)(=O)N2CCC(c3ccc(-n4cccn4)cn3)CC2)CCOCC1 [Example A194]
- Ki (MMP-13; [1]): 8.86 nM
- Ki (MMP-2; [2]): 8.71 nM
- Ki (MMP-1; [3]): > 10000 nM
- Ki (MMP-9; [4]): 12.6 nM
- Ki (MMP-14; [5]): 1700 nM

SMILES: O=C(NO)C1(S(=O)(=O)N2CCC(c3ccc(C(F)(F)CCC(F)(F)F)cn3)CC2)CCOCC1 [Example A128]
- Ki (MMP-13; [1]): 0.84 nM
- Ki (MMP-2; [2]): 3.33 nM
- Ki (MMP-1; [3]): 5190 nM
- Ki (MMP-9; [4]): 8.82 nM
- Ki (MMP-14; [5]): > 10000 nM

SMILES: CC(=O)OCCCC#Cc1ccc(C2CCN(S(=O)(=O)C3(C(=O)NO)CCOCC3)CC2)nc1 [Example A135]
- Ki (MMP-13; [1]): 0.28 nM
- Ki (MMP-2; [2]): 0.31 nM
- Ki (MMP-1; [3]): 2620 nM
- Ki (MMP-9; [4]): 0.48 nM
- Ki (MMP-14; [5]): 609 nM

SMILES: O=C(NO)C(CC1CC1)(CC1CC1)S(=O)(=O)N1CCC(c2ccc(CCC(F)(F)F)cn2)CC1 [Example A84]
- Ki (MMP-13; [1]): 1.82 nM
- Ki (MMP-2; [2]): 2.88 nM
- Ki (MMP-1; [3]): 9770 nM
- Ki (MMP-9; [4]): 0.738 nM
- Ki (MMP-14; [5]): 5390 nM

SMILES: CN(C(=O)CCCCC1CCN(S(=O)(=O)C2(C(=O)NO)CCOCC2)CC1)c1ccccc1 [Example A94]
- Ki (MMP-13; [1]): 1.18 nM
- Ki (MMP-2; [2]): 197 nM
- Ki (MMP-1; [3]): 2820 nM
- Ki (MMP-9; [4]): 823 nM
- Ki (MMP-14; [5]): > 10000 nM

SMILES: CCCN(C(=O)CCCC1CCN(S(=O)(=O)C2(C(=O)NO)CCOCC2)CC1)c1ccccc1 [Example A145]
- Ki (MMP-13; [1]): 23 nM
- Ki (MMP-2; [2]): 26.3 nM
- Ki (MMP-1; [3]): > 10000 nM
- Ki (MMP-9; [4]): 15.2 nM
- Ki (MMP-14; [5]): 6520 nM

SMILES: CN(Cc1ccco1)C(=O)CCCCC1CCN(S(=O)(=O)C2(C(=O)NO)CCOCC2)CC1 [Example A99]
- Ki (MMP-13; [1]): 0.79 nM
- Ki (MMP-2; [2]): 50.8 nM
- Ki (MMP-1; [3]): 356 nM
- Ki (MMP-9; [4]): 241 nM
- Ki (MMP-14; [5]): > 10000 nM

SMILES: O=C(NO)C1(S(=O)(=O)N2CCC(OCCCn3nnc(-c4ccc(OC(F)(F)F)cc4)n3)CC2)CCOCC1 [Example A153]
- Ki (MMP-13; [1]): 0.37 nM
- Ki (MMP-2; [2]): 175 nM
- Ki (MMP-1; [3]): > 10000 nM
- Ki (MMP-9; [4]): 1910 nM
- Ki (MMP-14; [5]): > 10000 nM

SMILES: CCN(C(=O)CCCC1CCN(S(=O)(=O)C2(C(=O)NO)CCOCC2)CC1)c1ccccc1 [Example A147]
- Ki (MMP-13; [1]): 44.8 nM
- Ki (MMP-2; [2]): 76.1 nM
- Ki (MMP-1; [3]): > 10000 nM
- Ki (MMP-9; [4]): 42.9 nM
- Ki (MMP-14; [5]): > 10000 nM

SMILES: O=C(CCCCC1CCN(S(=O)(=O)C2(C(=O)NO)CCOCC2)CC1)N1CCCC1 [Example A97]
- Ki (MMP-13; [1]): 1.63 nM
- Ki (MMP-2; [2]): 135 nM
- Ki (MMP-1; [3]): 496 nM
- Ki (MMP-9; [4]): 592 nM
- Ki (MMP-14; [5]): > 10000 nM
